Among the data in ChEMBL document CHEMBL1687692, “Exploring α7-Nicotinic Receptor Ligand Diversity by Scaffold Enumeration from the Chemical Universe Database GDB” (ACS Med Chem Lett, 2010) are EC50, Ki and IC50 values, retold here.

The target in test [1] is T1, Neuronal acetylcholine receptor subunit alpha-7 (Homo sapiens, UniProt P36544). The test can be described thus: Partial agonist activity at human alpha7 nAChR expressed in Xenopus oocyte […] current by voltage clamp method. It counts as functional.
The target in test [2] is T1, Neuronal acetylcholine receptor subunit alpha-7. In words: Binding affinity to human alpha7 nAChR.
Test [3] shares this target. The test can be described thus: Competitive antagonist activity at human alpha7 nAChR expressed in Xenopus oocyte assessed as inhibition of ACh-induced current by voltage clamp method. Type of test: functional.
Test [4] shares this target. The test can be described thus: Non competitive antagonist activity at human alpha7 nAChR expressed in Xenopus oocyte assessed as inhibition of ACh-induced current by voltage clamp method. Type of test: functional.
The target is the same in test [5]. The test can be described thus: Antagonist activity at human alpha7 nAChR expressed in Xenopus oocyte assessed as inhibition of ACh-induced current by voltage clamp method. It counts as functional.

T1 sequence (P36544 whole entry): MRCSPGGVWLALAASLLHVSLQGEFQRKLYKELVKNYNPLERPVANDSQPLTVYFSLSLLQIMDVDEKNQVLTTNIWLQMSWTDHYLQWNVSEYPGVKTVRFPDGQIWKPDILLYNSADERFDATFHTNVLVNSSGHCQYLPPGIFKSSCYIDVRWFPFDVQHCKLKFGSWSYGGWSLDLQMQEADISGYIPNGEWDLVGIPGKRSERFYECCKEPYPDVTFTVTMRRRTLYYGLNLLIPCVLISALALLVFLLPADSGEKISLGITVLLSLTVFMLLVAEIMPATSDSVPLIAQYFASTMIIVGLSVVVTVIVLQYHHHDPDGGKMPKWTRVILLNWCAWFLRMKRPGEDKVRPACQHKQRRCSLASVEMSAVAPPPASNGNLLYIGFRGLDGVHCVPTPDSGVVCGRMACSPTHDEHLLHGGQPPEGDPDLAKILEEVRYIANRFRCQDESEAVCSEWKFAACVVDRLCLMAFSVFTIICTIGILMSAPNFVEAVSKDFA

Regarding `O=C(Oc1ccc(Br)cc1)N1CCN2CCC1CC2` [SSR180711], the EC50 in test [1] turned out to be 4.4 µM. This molecule also showed a Ki in test [2] of 0.014 µM.

For `O=C(Oc1ccc(Br)cc1)N1CCCN2CCC[C@H]2C1`, the IC50 in test [3] is 5.6 µM.

With `C[C@H]1CN2CCCC[C@@H]2CN1C(=O)c1ccc2c(c1)OCCO2`, the IC50 in test [4] was 6.1 µM.

For the molecule `O=C(NCC12CCCN1CCC2)c1ccc(Cl)cc1`, in test [5], the IC50 amounted to 7.2 µM.

With `CC(C)N1CCCCN(C(=O)c2ccc(Cl)cc2)CC1`, the IC50 in test [5] was found to be 7 µM.

As usually defined, the EC50 is the concentration at which the effect is half-maximal. What is called Ki is the equilibrium dissociation constant of an inhibitor or competing ligand from its target. Usually IC50 stands for the concentration that gives 50% inhibition.
